Data from patent US5328902A, “7-(substituted)-9-[(substituted glycyl)amido]-6-demethyl-6-deoxytetracyclines” (American Cyanamid Co., priority 1992, dated 1994).
≈ marks a conversion by molar mass, not a printed value.

What was measured:
Type in all cases: cell-based
[1] = system: E. coli J3272 Tet D; experiment: microbe, parasite or virus in culture; details: E. coli J3272 Tet D
[2] = system: X. maltophilia NEMC 87210; experiment: MIC, agar dilution
[3] = system: S. hemolyticus AVHAH 88-3; experiment: MIC, agar dilution; details: S. hemolyticus AVHAH 88-3
[4] = system: Enterococcus 12201; experiment: MIC, agar dilution; details: Enterococcus 12201
[5] = system: Ps. acruginosa ATCC 27853; experiment: MIC, agar dilution; details: Ps. acruginosa ATCC 27853
[6] = system: E. coli UBMS 88-1 Tet B; experiment: microbe, parasite or virus in culture; details: E. coli UBMS 88-1 Tet B; 18 hours at 35° C.
[7] = system: S. aureus UBMS 88-5 Tet M; experiment: microbe, parasite or virus in culture; details: S. aureus UBMS 88-5 Tet M
[8] = system: E. coli BAJ9003 IMP MUT; experiment: microbe, parasite or virus in culture; details: E. coli BAJ9003 IMP MUT
[9] = system: S. aureus NEMC 8769; experiment: MIC, agar dilution; details: S. aureus NEMC 8769
[10] = system: S. aureus IVES 2943; experiment: MIC, agar dilution; details: S. aureus IVES 2943
[11] = system: S. aureus UBMS 88-4; experiment: MIC, agar dilution; details: S. aureus UBMS 88-4
[12] = system: S. aureus UBMS 90-2 Tet M; experiment: microbe, parasite or virus in culture; details: S. aureus UBMS 90-2 Tet M
[13] = system: S. aureus SMITH (MP); experiment: MIC, agar dilution; details: S. aureus SMITH (MP)
[14] = system: E. coli MC 4100 Tet sens.; experiment: MIC, agar dilution
[15] = system: S. aureus ROSE (MP); experiment: MIC, agar dilution; details: S. aureus ROSE (MP)
[16] = system: E. faecalis ATCC 29212; experiment: MIC, agar dilution; details: E. faecalis ATCC 29212
[17] = system: E. coli UBMS 89-1 Tet M; experiment: microbe, parasite or virus in culture; details: E. coli UBMS 89-1 Tet M
[18] = system: S. aureus ATCC 29213; experiment: MIC, agar dilution; details: S. aureus ATCC 29213
[19] = system: S. aureus UBMS 88-7 Tet K; experiment: microbe, parasite or virus in culture; details: S. aureus UBMS 88-7 Tet K
[20] = system: S. mariescens FPOR 8733; experiment: MIC, agar dilution
[21] = system: S. aureus UBMS 90-3; experiment: MIC, agar dilution; details: S. aureus UBMS 90-3
[22] = system: E. coli #311 (MP); experiment: MIC, agar dilution; details: E. coli #311 (MP)
[23] = system: E. coli ATCC 25922; experiment: MIC, agar dilution; details: E. coli ATCC 25922
[24] = system: S. aureus UBMS 90-1 Tet M; experiment: microbe, parasite or virus in culture; details: S. aureus UBMS 90-1 Tet M
[25] = system: S. aureus IVES 1 983; experiment: MIC, agar dilution; details: S. aureus IVES 1 983
[26] = system: E. coli PRP1 Tet A; experiment: microbe, parasite or virus in culture; details: E. coli PRP1 Tet A
[27] = system: E. coli MC 4100 TNIOC Tet B; experiment: microbe, parasite or virus in culture; details: E. coli MC 4100 TNIOC Tet B
[28] = system: E. coli J2175; experiment: MIC, agar dilution; details: E. coli J2175
[29] = system: E. coli UBMS 90-4 Tet M; experiment: microbe, parasite or virus in culture; details: E. coli UBMS 90-4 Tet M
[30] = system: E. coli UBMS 90-5; experiment: MIC, agar dilution
[31] = system: E. coli UBMS 89-2 Tet sens.; experiment: MIC, agar dilution; details: E. coli UBMS 89-2 Tet sens.
[32] = system: E. coli J3272 Tet C; experiment: microbe, parasite or virus in culture; details: E. coli J3272 Tet C

SMILES | MIC [1] | MIC [2] | MIC [3] | MIC [5] | MIC [6] | MIC [7] | MIC [8] | MIC [9] | MIC [11] | MIC [12] | MIC [13] | MIC [14] | MIC [16] | MIC [17] | MIC [18] | MIC [20] | MIC [21] | MIC [22] | MIC [23] | MIC [24] | other results
CN(C)c1cc(NC(=O)CNCCCCO)c(O)c2c1C[C@H]1C[C@H]3[C@H](N(C)C)C(O)=C(C(N)=O)C(=O)[C@@]3(O)C(O)=C1C2=O [R] | 8 µg/mL (≈ 13.3 µM) | 8 µg/mL (≈ 13.3 µM) | 32 µg/mL (≈ 53.2 µM) | > 32 µg/mL | > 32 µg/mL | 32 µg/mL (≈ 53.2 µM) | 4 µg/mL (≈ 6.65 µM) | 8 µg/mL (≈ 13.3 µM) | 8 µg/mL (≈ 13.3 µM) | 16 µg/mL (≈ 26.6 µM) | 8 µg/mL (≈ 13.3 µM) | 8 µg/mL (≈ 13.3 µM) | 8 µg/mL (≈ 13.3 µM) | 32 µg/mL (≈ 53.2 µM) | 16 µg/mL (≈ 26.6 µM) | 8 µg/mL (≈ 13.3 µM) | 8 µg/mL (≈ 13.3 µM) | 32 µg/mL (≈ 53.2 µM) | 32 µg/mL (≈ 53.2 µM) | 32 µg/mL (≈ 53.2 µM) | MIC [4]: 8 µg/mL (≈ 13.3 µM); MIC [10]: > 32 µg/mL; MIC [15]: > 32 µg/mL; MIC [19]: 32 µg/mL (≈ 53.2 µM); MIC [25]: > 32 µg/mL
CN(C)c1cc(NC(=O)CNCCF)c(O)c2c1CC1CC3C(N(C)C)C(O)=C(C(N)=O)C(=O)C3(O)C(O)=C1C2=O (stereo not drawn) [T, [4S-(4alpha,12aalpha)]-4,7-Bis(dimethylamino)-9-[[[(2-fluoroethyl)amino]acetyl]amino]-1,4,4a,5,5a,6,11,12a-octahydro3,10,12,12a-tetrahydroxy-1,11-dioxo-2-naphthacenecarboxamide] | 8 µg/mL (≈ 13.9 µM) | 16 µg/mL (≈ 27.8 µM) | 8 µg/mL (≈ 13.9 µM) | > 32 µg/mL | 16 µg/mL (≈ 27.8 µM) | 4 µg/mL (≈ 6.95 µM) | 1 µg/mL (≈ 1.74 µM) | 4 µg/mL (≈ 6.95 µM) | 4 µg/mL (≈ 6.95 µM) | 4 µg/mL (≈ 6.95 µM) | 1 µg/mL (≈ 1.74 µM) | 2 µg/mL (≈ 3.47 µM) | 1 µg/mL (≈ 1.74 µM) | 8 µg/mL (≈ 13.9 µM) | 4 µg/mL (≈ 6.95 µM) | > 32 µg/mL | 2 µg/mL (≈ 3.47 µM) | 16 µg/mL (≈ 27.8 µM) | 8 µg/mL (≈ 13.9 µM) | 4 µg/mL (≈ 6.95 µM) | MIC [26]: > 32 µg/mL; MIC [4]: 2 µg/mL (≈ 3.47 µM); MIC [27]: 16 µg/mL (≈ 27.8 µM); MIC [28]: 16 µg/mL (≈ 27.8 µM); MIC [29]: 8 µg/mL (≈ 13.9 µM); MIC [30]: 16 µg/mL (≈ 27.8 µM); MIC [31]: 16 µg/mL (≈ 27.8 µM)
CN(C)c1cc(NC(=O)CNCCN2CCCCC2)c(O)c2c1C[C@H]1C[C@H]3[C@H](N(C)C)C(O)=C(C(N)=O)C(=O)[C@@]3(O)C(O)=C1C2=O [U, [4S-(4alpha,12alpha)]-4,7-Bis(dimethylamino)-1,4,4a,5,5a,6,11,12a-octahydro3,10,12,12a-tetrahydroxy-1,11-dioxo-9-[[[[2-(1-piperidinyl)ethyl]amino]acetyl]amino]-2-naphthacenecarboxamide] |  | 16 µg/mL (≈ 25 µM) | 32 µg/mL (≈ 49.9 µM) | > 32 µg/mL | > 32 µg/mL | 16 µg/mL (≈ 25 µM) | 2 µg/mL (≈ 3.12 µM) | 8 µg/mL (≈ 12.5 µM) | 8 µg/mL (≈ 12.5 µM) | 8 µg/mL (≈ 12.5 µM) | 8 µg/mL (≈ 12.5 µM) | 4 µg/mL (≈ 6.24 µM) | 8 µg/mL (≈ 12.5 µM) | 16 µg/mL (≈ 25 µM) | 8 µg/mL (≈ 12.5 µM) | > 32 µg/mL | 8 µg/mL (≈ 12.5 µM) | 16 µg/mL (≈ 25 µM) | 16 µg/mL (≈ 25 µM) | 32 µg/mL (≈ 49.9 µM) | MIC [26]: > 32 µg/mL; MIC [27]: 32 µg/mL (≈ 49.9 µM); MIC [28]: 32 µg/mL (≈ 49.9 µM); MIC [10]: > 32 µg/mL; MIC [29]: 16 µg/mL (≈ 25 µM); MIC [15]: > 32 µg/mL; MIC [30]: 16 µg/mL (≈ 25 µM); MIC [32]: 16 µg/mL (≈ 25 µM); MIC [19]: 16 µg/mL (≈ 25 µM); MIC [31]: 32 µg/mL (≈ 49.9 µM); MIC [25]: > 32 µg/mL
